pKd: −log10 of the molar value. Activity calls are given as the source filed them. No cut-off for these calls is given here.
Assays:
[1] = molecular target: T1, Galectin-8 (Homo sapiens, UniProt O00214); experiment: Binding affinity to galectin-8 N-terminal domain (unknown origin)
T1 sequence (O00214 whole entry): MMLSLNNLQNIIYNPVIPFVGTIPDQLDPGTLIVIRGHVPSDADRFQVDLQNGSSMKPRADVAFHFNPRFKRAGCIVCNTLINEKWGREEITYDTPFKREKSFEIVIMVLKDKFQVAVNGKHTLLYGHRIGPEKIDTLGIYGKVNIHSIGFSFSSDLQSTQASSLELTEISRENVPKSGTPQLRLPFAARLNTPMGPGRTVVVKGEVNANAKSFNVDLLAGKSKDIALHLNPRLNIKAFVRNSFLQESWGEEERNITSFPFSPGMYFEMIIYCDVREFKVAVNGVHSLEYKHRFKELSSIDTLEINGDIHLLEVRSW

[2] = molecular target: T2, Galectin-3 (Homo sapiens, UniProt P17931); experiment: Binding affinity to galectin-3 (unknown origin)
T2 sequence (P17931 whole entry, the tested form may be a part): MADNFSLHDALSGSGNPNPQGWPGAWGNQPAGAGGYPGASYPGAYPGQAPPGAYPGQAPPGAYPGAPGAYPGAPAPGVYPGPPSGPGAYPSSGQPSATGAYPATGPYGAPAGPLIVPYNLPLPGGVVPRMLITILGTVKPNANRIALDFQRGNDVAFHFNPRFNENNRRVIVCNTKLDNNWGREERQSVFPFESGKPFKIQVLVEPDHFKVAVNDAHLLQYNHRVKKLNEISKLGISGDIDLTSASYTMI

[3] = molecular target: T1, Galectin-8; experiment: Binding affinity to human galactin-8 N terminal domain assessed as dissociation constant by competitive fluorescence polarization assay
[4] = molecular target: T2, Galectin-3; experiment: Binding affinity to human galactin-3 assessed as dissociation constant by competitive fluorescence polarization assay
[5] = species on record: Homo sapiens; experiment: Selectivity ratio of Kd for binding affinity to human galactin-8 N terminal domain to Kd for binding affinity to human galactin-3
[6] = molecular target: T2, Galectin-3; experiment: Binding affinity to human galactin-3 assessed as dissociation constant at 1500 uM by competitive fluorescence polarization assay
[7] = molecular target: Galectin-1 (Homo sapiens, UniProt P09382); experiment: Binding affinity to human galactin-1 assessed as dissociation constant by competitive fluorescence polarization assay
Sequence of Galectin-1 (P09382 whole entry, the tested form may be a part): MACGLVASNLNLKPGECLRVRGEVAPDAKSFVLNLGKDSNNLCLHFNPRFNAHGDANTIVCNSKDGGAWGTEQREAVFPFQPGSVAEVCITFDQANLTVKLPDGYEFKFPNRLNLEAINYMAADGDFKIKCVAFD

[8] = molecular target: T3, Galectin-4 (Homo sapiens, UniProt P56470); experiment: Binding affinity to human galactin-4 N terminal domain assessed as dissociation constant by competitive fluorescence polarization assay
T3 sequence (P56470 whole entry): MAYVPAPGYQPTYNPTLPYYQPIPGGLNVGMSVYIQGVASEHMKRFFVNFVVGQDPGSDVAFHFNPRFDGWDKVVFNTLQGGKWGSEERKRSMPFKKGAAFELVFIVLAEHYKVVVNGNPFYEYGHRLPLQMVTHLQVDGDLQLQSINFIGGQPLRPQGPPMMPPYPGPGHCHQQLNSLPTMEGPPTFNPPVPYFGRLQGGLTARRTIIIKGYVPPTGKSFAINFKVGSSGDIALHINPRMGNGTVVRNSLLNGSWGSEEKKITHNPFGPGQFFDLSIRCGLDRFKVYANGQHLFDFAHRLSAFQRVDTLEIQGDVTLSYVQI

[9] = molecular target: Galectin-7 (Homo sapiens, UniProt P47929); experiment: Binding affinity to human galactin-7 assessed as dissociation constant by competitive fluorescence polarization assay
Sequence of Galectin-7 (P47929 whole entry, the tested form may be a part): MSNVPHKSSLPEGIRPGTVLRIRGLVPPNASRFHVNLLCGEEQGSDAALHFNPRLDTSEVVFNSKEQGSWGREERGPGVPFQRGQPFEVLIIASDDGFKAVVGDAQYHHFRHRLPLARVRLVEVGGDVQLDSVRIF

[10] = molecular target: T4, Galectin-9 (Homo sapiens, UniProt O00182); experiment: Binding affinity to human galactin-9 N terminal domain assessed as dissociation constant by competitive fluorescence polarization assay
T4 sequence (O00182 whole entry, the tested form may be a part): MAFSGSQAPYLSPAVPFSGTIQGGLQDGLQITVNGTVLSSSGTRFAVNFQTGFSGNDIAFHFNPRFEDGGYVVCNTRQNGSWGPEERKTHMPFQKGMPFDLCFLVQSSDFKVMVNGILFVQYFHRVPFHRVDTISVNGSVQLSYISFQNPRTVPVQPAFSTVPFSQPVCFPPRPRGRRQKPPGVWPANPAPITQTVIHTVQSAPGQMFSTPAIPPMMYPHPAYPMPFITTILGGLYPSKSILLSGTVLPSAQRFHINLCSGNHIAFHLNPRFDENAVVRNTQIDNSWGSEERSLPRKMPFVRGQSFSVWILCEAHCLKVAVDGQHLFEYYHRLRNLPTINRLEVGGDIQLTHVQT

[11] = molecular target: T3, Galectin-4; experiment: Binding affinity to human galactin-4 C terminal domain assessed as dissociation constant by competitive fluorescence polarization assay
[12] = molecular target: T5, Galectin-2 (Homo sapiens, UniProt P05162); experiment: Binding affinity to human galactin-2 assessed as dissociation constant by competitive fluorescence polarization assay
T5 sequence (P05162 whole entry): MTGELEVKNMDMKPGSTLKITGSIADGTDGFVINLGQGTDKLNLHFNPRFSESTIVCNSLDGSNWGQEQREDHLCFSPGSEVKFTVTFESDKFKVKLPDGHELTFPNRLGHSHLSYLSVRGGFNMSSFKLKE

[13] = molecular target: T4, Galectin-9; experiment: Binding affinity to human galactin-9 C terminal domain assessed as dissociation constant by competitive fluorescence polarization assay
[14] = molecular target: T1, Galectin-8; experiment: Binding affinity to human galactin-8 C terminal domain assessed as dissociation constant by competitive fluorescence polarization assay
[15] = species on record: Homo sapiens; experiment: Selectivity ratio of Kd for binding affinity to human galactin-9 N terminal domain to binding affinity to human galactin-8 N terminal domain
[16] = species on record: Homo sapiens; experiment: Selectivity ratio of Kd for binding affinity to human galactin-9 C terminal domain to binding affinity to human galactin-8 N terminal domain
[17] = molecular target: T6, Galectin-8 (Homo sapiens) (UniProt O00214); experiment: Binding affinity to human galactin-8 N terminal domain assessed as dissociation constant at 1500 uM by competitive fluorescence polarization assay
T6 sequence (whole entry): T1 sequence (O00214 whole entry)

pKd [3] | pKd [4] | SMILES | further results
 |  | CO[C@@H]1O[C@H](CO)[C@H](O)[C@H](OCc2ccc3ccccc3n2)[C@H]1O | pKd [1]: 3.15; pKd [2]: 3.21
2.82 | 3.64 | Cc1ccc(S[C@@H]2O[C@H](CO)[C@H](O)[C@H](OCc3cn(-c4ccc(C(=O)O)cc4)nn3)[C@H]2O)cc1 | 
2.80 | 3.21 | CO[C@@H]1O[C@H](CO)[C@H](O)[C@H](OCc2nc3ccccc3o2)[C@H]1O | 
3.72 | 2.85 | CO[C@@H]1O[C@H](CO)[C@H](O)[C@H](OCc2nc3ccc(C(=O)O)cc3n2C)[C@H]1O | Selectivity ratio [5]: 7
2.96 |  | COC(=O)c1ccc2nc(CO[C@H]3[C@@H](O)[C@@H](CO)O[C@@H](OC)[C@@H]3O)n(C)c2c1 | Activity [6]: inactive
3.06 | 3.29 | CO[C@@H]1O[C@H](CO)[C@H](O)[C@H](OCc2nc3ccccc3s2)[C@H]1O | 
3.09 | 3.29 | COC(=O)c1cccc(-n2cc(CO[C@H]3[C@@H](O)[C@@H](CO)O[C@@H](OC)[C@@H]3O)nn2)c1 | 
3.07 | 2.82 | CO[C@@H]1O[C@H](CO)[C@H](O)[C@H](OCc2nc3ccccc3[nH]2)[C@H]1O | 
2.92 | 2.80 | CO[C@@H]1O[C@H](CO)[C@H](O)[C@H](OCc2nc3ccccc3n2C)[C@H]1O | 
 |  | CO[C@@H]1O[C@H](CO)[C@H](O)[C@H](OCc2ccc3ccc(C(=O)O)cc3n2)[C@H]1O | pKd [1]: 3.96; pKd [2]: 3.42
2.89 | 3.72 | CO[C@@H]1O[C@H](CO)[C@H](O)[C@H](OCc2cn(-c3ccc(C(=O)O)cc3)nn2)[C@H]1O | 
< 2.70 | 2.96 | CO[C@@H]1O[C@H](CO)[C@H](O)[C@H](OCc2nc3cc(C(=O)O)ccc3n2C)[C@H]1O | 
2.80 | 2.70 | CCOC(=O)c1ccc2c(c1)nc(CO[C@H]1[C@@H](O)[C@@H](CO)O[C@@H](OC)[C@@H]1O)n2C | 
5.55 | 5.39 | O=C(O)c1ccc2nc(CO[C@@H]3[C@@H](O)[C@@H](Sc4ccc(Cl)c(Cl)c4)O[C@H](CO)[C@@H]3O)[nH]c2c1 | pKd [7]: 4.06; pKd [8]: 4.11; pKd [9]: 4.37; pKd [10]: 4.89; pKd [11]: 3.80; pKd [12]: 4.00; pKd [13]: 4.74; pKd [14]: 3.35; Selectivity ratio [15]: 5; Selectivity ratio [16]: 9
2.92 | 3.31 | COC(=O)c1cccc(-n2cc(CO[C@H]3[C@@H](O)[C@@H](CO)O[C@@H](Sc4ccc(C)cc4)[C@@H]3O)nn2)c1 | 
 |  | O=C(O)c1ccc2ccc(CO[C@@H]3[C@@H](O)[C@@H](Sc4ccc(Cl)c(Cl)c4)O[C@H](CO)[C@@H]3O)nc2c1 | pKd [1]: 5.82; pKd [2]: 5.92
2.96 | < 2.70 | COC(=O)c1ccccc1-n1cc(CO[C@H]2[C@@H](O)[C@@H](CO)O[C@@H](Sc3ccc(C)cc3)[C@@H]2O)nn1 | 
< 2.70 | 3.15 | COC(=O)c1ccc(-n2cc(CO[C@H]3[C@@H](O)[C@@H](CO)O[C@@H](OC)[C@@H]3O)nn2)cc1 | 
2.92 | 3.16 | Cc1ccc(S[C@@H]2O[C@H](CO)[C@H](O)[C@H](OCc3cn(-c4ccccc4C(=O)O)nn3)[C@H]2O)cc1 | 
3.51 | 3.23 | CO[C@@H]1O[C@H](CO)[C@H](O)[C@H](OCc2nc3ccc(C(=O)O)cc3[nH]2)[C@H]1O | 
2.85 | 3.48 | COC(=O)c1ccccc1-n1cc(CO[C@H]2[C@@H](O)[C@@H](CO)O[C@@H](OC)[C@@H]2O)nn1 | 
 | 3.33 | CO[C@@H]1O[C@H](CO)[C@H](O)[C@H](OCc2cn(-c3ccccc3C(=O)O)nn2)[C@H]1O | Activity [17]: inactive
3.03 | < 2.70 | COC(=O)c1ccc(-n2cc(CO[C@H]3[C@@H](O)[C@@H](CO)O[C@@H](Sc4ccc(C)cc4)[C@@H]3O)nn2)cc1 | 
3.12 | 3.60 | Cc1ccc(S[C@@H]2O[C@H](CO)[C@H](O)[C@H](OCc3cn(-c4cccc(C(=O)O)c4)nn3)[C@H]2O)cc1 | 
3.19 | 3.30 | CO[C@@H]1O[C@H](CO)[C@H](O)[C@H](OCc2cn(-c3cccc(C(=O)O)c3)nn2)[C@H]1O | 
2.92 | 2.80 | COC(=O)c1ccc2nc(CO[C@H]3[C@@H](O)[C@@H](CO)O[C@@H](OC)[C@@H]3O)[nH]c2c1 | 

SMILES | pKd [3] | pKd [4] | further results
Cn1c(CO[C@@H]2[C@@H](O)[C@@H](Sc3ccc(Cl)c(Cl)c3)O[C@H](CO)[C@@H]2O)nc2ccc(C(=O)O)cc21 | 5.74 | 5.30 | pKd [7]: 3.89; pKd [8]: 3.89; pKd [9]: 3.72; pKd [10]: 4.80; pKd [11]: 3.92; pKd [12]: 3.66; pKd [13]: 4.35; Selectivity ratio [5]: 25; pKd [14]: 3.12; Selectivity ratio [15]: 25

From ChEMBL document CHEMBL4831499, “Benzimidazole-galactosides bind selectively to the Galectin-8 N-Terminal domain: Structure-based design and optimisation” (Eur J Med Chem, 2021)
